From ChEMBL document CHEMBL1949494, “SAR of α7 nicotinic receptor agonists derived from tilorone: exploration of a novel nicotinic pharmacophore” (Bioorg Med Chem Lett, 2012)

Columns and labels:
[1] = target: Neuronal acetylcholine receptor subunit alpha-7 (Rattus norvegicus, UniProt Q05941); experiment: Displacement of [3H]methyllylcaconitine from alpha7 nAChR in rat brain; format: tissue-based
[2] = target: T1, Neuronal acetylcholine receptor; alpha3/beta4 (Homo sapiens, UniProt P30926+P32297); experiment: Agonist activity at alpha3beta4 nAChR receptor by FLIPR assay; format: functional
T1 sequence (P30926 whole entry): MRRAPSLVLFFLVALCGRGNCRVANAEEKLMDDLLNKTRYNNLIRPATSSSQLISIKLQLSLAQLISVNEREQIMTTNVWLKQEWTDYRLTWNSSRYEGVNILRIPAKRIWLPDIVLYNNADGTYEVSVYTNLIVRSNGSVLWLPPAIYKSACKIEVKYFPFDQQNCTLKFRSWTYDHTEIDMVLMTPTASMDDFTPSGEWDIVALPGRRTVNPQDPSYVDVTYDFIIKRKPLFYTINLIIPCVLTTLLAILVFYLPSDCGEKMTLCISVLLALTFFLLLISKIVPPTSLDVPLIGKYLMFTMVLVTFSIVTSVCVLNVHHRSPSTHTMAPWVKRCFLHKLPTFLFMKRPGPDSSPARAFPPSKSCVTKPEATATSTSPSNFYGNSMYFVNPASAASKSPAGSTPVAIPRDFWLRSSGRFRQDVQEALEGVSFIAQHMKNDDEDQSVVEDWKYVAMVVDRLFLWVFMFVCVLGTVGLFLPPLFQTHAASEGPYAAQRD
T1 sequence (P32297 whole entry): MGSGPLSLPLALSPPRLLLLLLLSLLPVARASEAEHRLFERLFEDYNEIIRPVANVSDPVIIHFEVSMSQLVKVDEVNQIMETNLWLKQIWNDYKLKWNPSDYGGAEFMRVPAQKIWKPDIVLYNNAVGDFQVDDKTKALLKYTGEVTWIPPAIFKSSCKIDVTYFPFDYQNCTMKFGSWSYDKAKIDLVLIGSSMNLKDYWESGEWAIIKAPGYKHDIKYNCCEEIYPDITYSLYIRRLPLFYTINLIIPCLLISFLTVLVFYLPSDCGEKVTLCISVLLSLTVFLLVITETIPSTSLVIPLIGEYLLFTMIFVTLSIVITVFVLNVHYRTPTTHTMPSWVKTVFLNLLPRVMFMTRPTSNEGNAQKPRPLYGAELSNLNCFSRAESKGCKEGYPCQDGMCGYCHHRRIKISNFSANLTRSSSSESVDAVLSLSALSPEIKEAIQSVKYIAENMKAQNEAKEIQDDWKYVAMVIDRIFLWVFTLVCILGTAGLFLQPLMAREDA

[3] = target: T2, Neuronal acetylcholine receptor subunit alpha-7 (Homo sapiens, UniProt P36544); experiment: Agonist activity at human recombinant alpha7 nAChR expressed in xenopus oocytes by patch clamp assay relative to acetylcholine; format: functional, cell-based; conditions: Oocyte
T2 sequence (P36544 whole entry): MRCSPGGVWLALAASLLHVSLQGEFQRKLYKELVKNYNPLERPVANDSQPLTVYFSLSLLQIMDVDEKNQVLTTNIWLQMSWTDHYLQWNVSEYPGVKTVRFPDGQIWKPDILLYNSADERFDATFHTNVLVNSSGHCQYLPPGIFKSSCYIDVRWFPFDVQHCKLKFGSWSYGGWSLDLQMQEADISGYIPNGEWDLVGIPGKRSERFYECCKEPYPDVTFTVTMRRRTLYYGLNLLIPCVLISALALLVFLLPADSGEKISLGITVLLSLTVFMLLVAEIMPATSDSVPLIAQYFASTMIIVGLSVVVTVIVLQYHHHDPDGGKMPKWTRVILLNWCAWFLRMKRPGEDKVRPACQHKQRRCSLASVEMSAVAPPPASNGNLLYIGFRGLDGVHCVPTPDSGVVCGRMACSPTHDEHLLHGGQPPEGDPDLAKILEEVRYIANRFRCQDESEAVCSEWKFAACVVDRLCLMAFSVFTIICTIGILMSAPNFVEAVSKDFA

[4] = target: T3, Neuronal acetylcholine receptor; alpha4/beta2 (Homo sapiens, UniProt P17787+P43681); experiment: Agonist activity at alpha4beta2 nAChR receptor by FLIPR assay; format: functional
T3 sequence (P17787 whole entry): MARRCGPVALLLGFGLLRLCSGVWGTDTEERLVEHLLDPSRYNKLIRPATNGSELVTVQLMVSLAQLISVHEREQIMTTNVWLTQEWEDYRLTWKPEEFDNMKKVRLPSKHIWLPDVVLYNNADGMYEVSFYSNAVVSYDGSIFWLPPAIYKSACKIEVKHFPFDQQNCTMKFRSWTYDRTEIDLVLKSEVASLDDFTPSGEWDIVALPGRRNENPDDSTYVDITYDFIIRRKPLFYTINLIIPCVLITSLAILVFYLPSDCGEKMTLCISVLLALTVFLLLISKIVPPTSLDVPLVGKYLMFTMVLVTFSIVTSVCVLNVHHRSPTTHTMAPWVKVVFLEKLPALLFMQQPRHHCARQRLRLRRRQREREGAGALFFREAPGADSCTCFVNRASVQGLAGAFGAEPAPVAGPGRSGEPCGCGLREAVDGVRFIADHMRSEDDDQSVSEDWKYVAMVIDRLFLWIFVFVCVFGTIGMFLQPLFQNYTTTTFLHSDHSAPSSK
T3 sequence (P43681 whole entry): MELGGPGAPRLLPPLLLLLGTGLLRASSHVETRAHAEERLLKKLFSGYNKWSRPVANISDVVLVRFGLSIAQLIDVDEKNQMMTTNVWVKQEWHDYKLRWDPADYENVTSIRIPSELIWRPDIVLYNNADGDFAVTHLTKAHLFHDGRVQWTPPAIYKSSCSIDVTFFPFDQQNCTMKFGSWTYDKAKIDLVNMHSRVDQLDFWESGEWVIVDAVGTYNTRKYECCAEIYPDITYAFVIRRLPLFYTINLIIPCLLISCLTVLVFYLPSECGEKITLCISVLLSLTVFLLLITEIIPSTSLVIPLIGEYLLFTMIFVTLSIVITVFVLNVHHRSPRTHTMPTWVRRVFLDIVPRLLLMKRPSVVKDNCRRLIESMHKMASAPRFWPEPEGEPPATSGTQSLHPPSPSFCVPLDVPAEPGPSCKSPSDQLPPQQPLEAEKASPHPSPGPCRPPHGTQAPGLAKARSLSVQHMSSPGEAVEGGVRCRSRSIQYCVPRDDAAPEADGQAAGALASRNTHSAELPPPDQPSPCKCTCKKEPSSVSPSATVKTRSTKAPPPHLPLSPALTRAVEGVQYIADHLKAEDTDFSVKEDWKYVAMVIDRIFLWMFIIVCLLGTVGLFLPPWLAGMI

[5] = target: T2, Neuronal acetylcholine receptor subunit alpha-7; experiment: Agonist activity at human recombinant alpha7 nAChR expressed in xenopus oocytes by patch clamp assay; format: functional, cell-based, Oocyte
[6] = target: Neuronal acetylcholine receptor; alpha4/beta4 (Homo sapiens, UniProt P30926+P43681); experiment: Agonist activity at alpha4beta4 nAChR receptor by FLIPR assay; format: functional
Chain of Neuronal acetylcholine receptor; alpha4/beta4 (P30926 whole entry): as the sequence (P30926 whole entry) above
Chain of Neuronal acetylcholine receptor; alpha4/beta4 (P43681 whole entry): as the sequence (P43681 whole entry) above

[7] = target: Neuronal acetylcholine receptor; alpha3/beta2 (Homo sapiens, UniProt P17787+P32297); experiment: Agonist activity at alpha3beta2 nAChR receptor by FLIPR assay; format: functional
Chain of Neuronal acetylcholine receptor; alpha3/beta2 (P17787 whole entry): as the sequence (P17787 whole entry) above
Chain of Neuronal acetylcholine receptor; alpha3/beta2 (P32297 whole entry): as the sequence (P32297 whole entry) above

[8] = target: Muscarinic acetylcholine receptor; experiment: Binding affinity to muscarinic receptor in rat brain; format: tissue-based
[9] = target: Neuronal acetylcholine receptor subunit alpha-7 (Rattus norvegicus) (UniProt Q05941); experiment: Ratio of tilorone Ki to compound Ki for alpha7 nAChR in rat brain; format: tissue-based
Chain of Neuronal acetylcholine receptor subunit alpha-7 (Rattus norvegicus) (Q05941 whole entry): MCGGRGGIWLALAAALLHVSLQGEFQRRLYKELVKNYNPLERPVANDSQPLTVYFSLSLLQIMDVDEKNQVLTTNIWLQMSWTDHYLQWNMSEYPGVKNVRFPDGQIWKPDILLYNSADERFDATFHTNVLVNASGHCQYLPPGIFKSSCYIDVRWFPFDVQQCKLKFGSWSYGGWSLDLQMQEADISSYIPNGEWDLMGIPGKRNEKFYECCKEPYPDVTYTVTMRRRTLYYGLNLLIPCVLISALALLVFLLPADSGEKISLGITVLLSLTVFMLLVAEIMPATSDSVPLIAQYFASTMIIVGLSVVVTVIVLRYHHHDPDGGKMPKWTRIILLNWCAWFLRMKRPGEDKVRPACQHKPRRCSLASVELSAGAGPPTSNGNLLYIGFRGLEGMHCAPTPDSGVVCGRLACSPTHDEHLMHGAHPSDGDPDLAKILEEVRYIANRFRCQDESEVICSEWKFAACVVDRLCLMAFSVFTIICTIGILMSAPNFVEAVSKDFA

[10] = Ratio of drug level in brain to plasma in rat at 3 umol/kg, ip at 30 mins; format: ADME, organism-based; conditions: read-out: BPR
[11] = target: T3, Neuronal acetylcholine receptor; alpha4/beta2; experiment: Agonist activity at human recombinant alpha4beta2 nAChR in HEK293 cells by FLIPR assay; format: functional, cell-based
[12] = target: T1, Neuronal acetylcholine receptor; alpha3/beta4; experiment: Agonist activity at human recombinant alpha3beta4 nAChR in HEK293 cells by FLIPR assay; format: functional, cell-based
[13] = target: Voltage-gated inwardly rectifying potassium channel KCNH2 (Homo sapiens, UniProt Q12809); experiment: Displacement of [3H]dofetilide from human ERG expressed in HEK293 cells
Chain of Voltage-gated inwardly rectifying potassium channel KCNH2 (Q12809 whole entry): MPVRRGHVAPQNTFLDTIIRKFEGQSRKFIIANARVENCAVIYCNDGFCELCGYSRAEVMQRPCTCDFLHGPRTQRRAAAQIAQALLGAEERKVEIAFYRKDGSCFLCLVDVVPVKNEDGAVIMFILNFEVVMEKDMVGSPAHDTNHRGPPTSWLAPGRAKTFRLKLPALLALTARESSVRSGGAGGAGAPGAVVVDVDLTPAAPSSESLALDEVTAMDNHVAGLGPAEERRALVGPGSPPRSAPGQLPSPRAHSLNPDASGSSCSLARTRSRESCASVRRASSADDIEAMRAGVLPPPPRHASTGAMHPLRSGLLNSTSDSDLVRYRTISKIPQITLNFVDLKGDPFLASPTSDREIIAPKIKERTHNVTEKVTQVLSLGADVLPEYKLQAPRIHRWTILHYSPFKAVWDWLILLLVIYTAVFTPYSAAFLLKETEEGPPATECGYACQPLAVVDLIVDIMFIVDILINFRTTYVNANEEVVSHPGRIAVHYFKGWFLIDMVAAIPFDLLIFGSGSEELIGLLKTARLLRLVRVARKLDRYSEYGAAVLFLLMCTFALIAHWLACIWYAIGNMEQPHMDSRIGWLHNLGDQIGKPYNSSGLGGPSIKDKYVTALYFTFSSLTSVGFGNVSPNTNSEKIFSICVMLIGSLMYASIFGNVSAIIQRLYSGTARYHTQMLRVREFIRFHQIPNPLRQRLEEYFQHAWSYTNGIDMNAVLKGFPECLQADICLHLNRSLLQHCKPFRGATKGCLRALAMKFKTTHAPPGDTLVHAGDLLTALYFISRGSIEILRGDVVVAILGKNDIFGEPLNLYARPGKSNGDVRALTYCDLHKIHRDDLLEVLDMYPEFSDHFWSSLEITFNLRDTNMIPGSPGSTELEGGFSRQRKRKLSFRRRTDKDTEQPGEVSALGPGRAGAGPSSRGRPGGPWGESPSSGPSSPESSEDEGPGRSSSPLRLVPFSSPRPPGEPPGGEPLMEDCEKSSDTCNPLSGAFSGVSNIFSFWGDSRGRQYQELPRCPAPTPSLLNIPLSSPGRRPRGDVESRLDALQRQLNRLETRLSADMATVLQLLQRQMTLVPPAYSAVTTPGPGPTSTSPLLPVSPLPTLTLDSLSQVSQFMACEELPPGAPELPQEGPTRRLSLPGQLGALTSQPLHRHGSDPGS

[14] = Plasma concentration in rat at 3 umol/kg, ip at 30 mins; format: ADME, organism-based
[15] = Binding affinity to 5HT3

Chain of Neuronal acetylcholine receptor subunit alpha-7 (Rattus norvegicus, UniProt Q05941) (Q05941 whole entry): as the sequence (Q05941 whole entry) above

Row | SMILES | Ki [1] [µM] | other results
1 | O=C1c2cc(O[C@@H]3CN4CCC3CC4)ccc2-c2ccc(O[C@@H]3CN4CCC3CC4)cc21 | 0.0016 | 
2 | CCN(CC)CCOc1ccc2c(c1)C(=O)c1cc(OCCN(CC)CC)ccc1-2 [TILORONE] | 0.056 | EC50 [2]: > 10 µM; Emax [3]: 67%; EC50 [4]: > 10 µM; EC50 [5]: 2.5 µM; EC50 [6]: > 10 µM; EC50 [7]: > 10 µM; Ki [8]: 0.42 µM
3 | c1ccc2c(c1)Cc1cc(O[C@@H]3CN4CCC3CC4)ccc1-2 | 0.34 | 
4 | O=C1c2cc(O[C@H]3CN4CCC3CC4)ccc2-c2ccc(O[C@H]3CN4CCC3CC4)cc21 | 0.00058 | 
5 | O=C1c2ccccc2-c2ccc(O[C@@H]3CN4CCC3CC4)cc21 | 0.012 | 
6 | CC(C)N(CCOc1ccc2c(c1)C(=O)c1cc(OCCN(C(C)C)C(C)C)ccc1-2)C(C)C | 1.3 | 
7 | O=c1c2ccccc2oc2ccc(O[C@@H]3CN4CCC3CC4)cc12 | 0.0088 | 
8 | CN1CC[C@@H]1COc1ccc2c(c1)C(=O)c1cc(OC[C@H]3CCN3C)ccc1-2 | 0.0043 | 
9 | CCN(CC)CCOc1ccc2ccc(OCCN(CC)CC)cc2c1 | > 1000 | 
10 | CCN(CC)CCOc1ccc2c(c1)S(=O)(=O)c1cc(OCCN(CC)CC)ccc1-2 | 0.23 | 
11 | O=S1(=O)c2ccccc2-c2ccc(O[C@H]3CN4CCC3CC4)cc21 | 0.0039 | 
12 | c1ccc2c(c1)Cc1cc(O[C@H]3CN4CCC3CC4)ccc1-2 | 0.11 | 
13 | CCN(CC)CCOc1ccc2oc3ccc(OCCN(CC)CC)cc3c(=O)c2c1 | 0.44 | 
14 | O=C1c2ccccc2-c2ccc(N3CCN4CCC3CC4)cc21 | 0.00028 | 
15 | CCN(CC)CCOc1ccc2c3ccc(OCCN(CC)CC)cc3[s+]([O-])c2c1 | 0.69 | 
16 | O=C1c2ccccc2-c2ccc(O[C@H]3CN4CCC3CC4)cc21 | 0.0032 | 
17 | CCN(CC)CCCOc1ccc2c(c1)C(=O)c1cc(OCCCN(CC)CC)ccc1-2 | 0.83 | 
18 | CC[N+](C)(CC)CCOc1ccc2c(c1)C(=O)c1cc(OCC[N+](C)(CC)CC)ccc1-2 | 0.015 | 
19 | O=S1(=O)c2ccccc2-c2ccc(N3CCN4CCC3CC4)cc21 | 2.3e-05 | Kp at 0.5 h [10]: 12; EC50 [11]: > 100 µM; Emax [3]: < 5%; EC50 [12]: > 100 µM; Ki [13]: 0.47 µM; EC50 [5]: > 100 µM; concentration at 0.5 h [14]: 8.4 ng/mL; Ki [15]: 0.66 µM
20 | CN1[C@@H]2CC[C@H]1C[C@H](Oc1ccc3c(c1)C(=O)c1cc(O[C@@H]4C[C@H]5CC[C@@H](C4)N5C)ccc1-3)C2 | 0.09 | 
21 | O=c1c2ccccc2oc2ccc(O[C@H]3CN4CCC3CC4)cc12 | 0.0087 | 
22 | O=S1(=O)c2ccccc2-c2ccc(O[C@@H]3CN4CCC3CC4)cc21 | 0.028 | 
23 | CCN(CC)CCOc1ccc2c(c1)Cc1cc(OCCN(CC)CC)ccc1-2 | 0.77 | 
24 | CCN(CC)CCOc1ccc2c(c1)sc1cc(OCCN(CC)CC)ccc12 | 1.6 | 
25 | CCN(CC)CCOc1ccc2c(c1)C(O)c1cc(OCCN(CC)CC)ccc1-2 | 0.27 | 
26 | CCN(CC)CCOc1ccc(-c2ccc(OCCN(CC)CC)cc2)cc1 | > 1000 | 
27 | CCN(CC)CCCCOc1ccc2c(c1)C(=O)c1cc(OCCCCN(CC)CC)ccc1-2 | 2.3 | 
28 | CCN(CC)CCOc1cccc(C(=O)c2cccc(OCCN(CC)CC)c2)c1 | 68 | 

Further lines, with some results ahead:

Row | Ki [1] [µM] | SMILES | other results
29 | 0.00065 | CN1CC2CN(c3ccc4c(c3)C(=O)c3cc(N)ccc3-4)CC2C1 (configuration not stated) | 
30 | 0.071 | O=C1c2cc(O[C@@H]3CCNC3)ccc2-c2ccc(O[C@@H]3CCNC3)cc21 | 
31 | 0.063 | CN1CC2CN(c3ccc4c(c3)C(=O)c3ccccc3-4)CC2C1 (configuration not stated) | 
32 | 0.087 | CCN(CC)CC#Cc1ccc2c(c1)C(=O)c1cc(C#CCN(CC)CC)ccc1-2 | 
33 | 0.95 | CCNCCOc1ccc2c(c1)C(=O)c1cc(OCCNCC)ccc1-2 | 
34 | 0.037 | CN1CCC(Oc2ccc3c(c2)C(=O)c2cc(OC4CCN(C)CC4)ccc2-3)CC1 | 
35 | 0.05 | CN(C)CCOc1ccc2c(c1)C(=O)c1cc(OCCN(C)C)ccc1-2 | 
36 | 0.018 | O=C1c2cc(N3C[C@@H]4CN[C@@H]4C3)ccc2-c2ccc(N3C[C@@H]4CN[C@@H]4C3)cc21 | 
37 | 0.0012 | CN1CC2CN(c3ccc4c(c3)C(=O)c3cc(N5CC6CN(C)CC6C5)ccc3-4)CC2C1 (configuration not stated) | 
38 | 2 | CCN(CC)CCOc1ccc2c(c1)C(=O)c1cc(OCCOC)ccc1-2 | 
39 | 0.0076 | CN1CCC[C@@H]1COc1ccc2c(c1)C(=O)c1cc(OC[C@H]3CCCN3C)ccc1-2 | 
40 | 9.2e-05 | CN1C[C@H]2CN(c3ccc4c(c3)C(=O)c3cc(N5C[C@@H]6CN(C)[C@@H]6C5)ccc3-4)C[C@H]21 | 
41 | 0.0059 | CN1C[C@H]2CN(c3ccc4c(c3)C(=O)c3ccccc3-4)C[C@H]21 | Ratio Ki [9]: 10
42 | 0.053 | O=C1c2cc(OCCN3CCCC3)ccc2-c2ccc(OCCN3CCCC3)cc21 | 
43 | 4.2 | O=C1c2cc(OCCN3CCCCC3)ccc2-c2ccc(OCCN3CCCCC3)cc21 | 
44 | 0.012 | CN1CC[C@@H](Oc2ccc3c(c2)C(=O)c2cc(O[C@@H]4CCN(C)C4)ccc2-3)C1 | 
45 | 2.9 | CCN(CC)CCCc1ccc2c(c1)C(=O)c1cc(CCCN(CC)CC)ccc1-2 | 
46 | 0.00031 | O=C1c2cc(N3CC4CNCC4C3)ccc2-c2ccc(N3CC4CNCC4C3)cc21 (configuration not stated) | 
47 | 0.012 | CN1CCC[C@H]1COc1ccc2c(c1)C(=O)c1cc(OC[C@@H]3CCCN3C)ccc1-2 | 
48 | 15 | NCCOc1ccc2c(c1)C(=O)c1cc(OCCN)ccc1-2 | 
49 | 0.14 | CN1CCN(c2ccc3c(c2)C(=O)c2cc(N4CCN(C)CC4)ccc2-3)CC1 | 
50 | 0.0065 | CN1CCCN(c2ccc3c(c2)C(=O)c2cc(N4CCCN(C)CC4)ccc2-3)CC1 | Ratio Ki [9]: 10
51 | 0.023 | CN1C[C@H]2CN(c3ccc4c(c3)S(=O)(=O)c3ccccc3-4)C[C@H]21 | 
52 | 0.004 | CN1CC2CN(c3ccc4oc5ccccc5c(=O)c4c3)CC2C1 (configuration not stated) | Kp at 0.5 h [10]: 48; EC50 [11]: > 100 µM; Emax [3]: 61%; EC50 [12]: > 100 µM; EC50 [5]: 2.2 µM; concentration at 0.5 h [14]: 12.4 ng/mL; Ki [15]: 0.1 µM
53 | 1.8 | CCN(CC)CCOc1ccc2c(c1)C(=O)c1ccccc1-2 | 
